What all share (assay type): cell-based, mouse
Test [1] relates to N2a cells. Nature of the test: Cell viability (MTT assay) in N2a cells. The settings on record: ligand treated N2a cells relative to untreated cells; P=0.038. As to the method: (§1) The N2a cells grown for 6 days in a serum-free medium (1:1 mixture of DMEM and OptiMEM, plus penicillin and streptomycin (Invitrogen, Carlsbad, CA, USA) until the cells developed neuronal processes. As shown in (FIG. 10), these cells were used for 4 groups—one control group and 3 treatment groups. 1) untreated N2a cells (the control group), 2) N2a cells treated with ligand 1 (N2a+ligand 1), 3) N2a cells transfected mAPP with the (lipofectamine) (20 μM final concentration for 6 hrs (mAPP), 4) N2a cells transfected with mAPP cDNA for 6 hrs, treated with ligand 1 (mAPP+ligand 1 treatment group), N2a cells treated with ligand 1 for 24 hrs and then treated with the mAPP cDNA for 6 hrs (ligand 1+mAPP treatment group). As shown in (FIG. 10), the inventors performed 4 independent cell cultures and treatments for all experiments (n=4).
Cell viability and apoptotic cell death MTT assay. Ligand 1 treated N2a cells, cell based apoptosis assay was performed using Cellometer Vision CBA Image Cytometry System (Nexcelom Bioscience LLC, Lawrence, MA) with two fluorophore Annexin V-FITC and Propidium Iodide (PI) staining solution, according to manufacturer's instructions. Briefly, cells were harvested using trypsin, then spin down at 300 g for three minutes and pellets were washed with 1×PBS, cells were counted using hematocytometer. […]

Test [2] concerns N2a cells. The test can be described thus: Transmission electron microscopy of mitochondrial number and length. To be noted: TEM. From the text: Transmission electron microscopy. To determine the effects of ligand 1 on the number and length of mitochondria, the inventors used transmission electron microscopy on cells with untreated N2a cells, […], mAPP, and mAPP+ligand 1.
Transmission electron microscopy of mitochondria. To determine the protective effects ligand 1 the number and morphology of mitochondria and the rescue effects of Ligand 1, on Aβ induced mitochondrial toxicity. The inventors conducted transmission electron microscopy (TEM) of N2a cells from control and experimental treatments (n=4). Treated and untreated N2a cells were fixed in 100 mM sodium cacodylate (pH 7.2), 2.5% glutaraldehyde, 1.6% paraformaldehyde, 0.064% picric acid, and 0.1% ruthenium red. They were gently washed and post-fixed for 1 hr in 1% osmium tetroxide plus […] potassium ferricyanide, in 100 mM sodium cacodylate, pH 7.2. After a thorough rinsing in water, the N2a cells were dehydrated, infiltrated overnight in 1:1 acetone:Epon 812, infiltrated for 1 hr with 100% Epon 812 resin, and embedded in the resin. After polymerization, 60- to 80-nm thin sections were cut on a Reichert ultramicrotome and stained for 5 min in lead citrate. […] The numbers of mitochondria were counted in the control N2a cells (number of cells=50) and experimental groups (number of cells per group=40), and statistical significance was determined, using one-way ANOVA.

Test [3] has as its system Aβ40 and Aβ42 levels in mAPP N2a cells. The test can be described thus: Sandwich ELISA of soluble Aβ40 and Aβ42 levels in mAPP N2a cells. To be noted: ligand 1-treated mAPP N2a cells vs untreated mAPP cells.
From the text: ELISA Ligand based inhibition of BACE1 activity, Aβ 40 and 42. BACE1 activity, Levels of Aβ40 and 42. To determine whether ligand 1 lowers BACE1 activity and reducing the Aβ40 and Aβ42 levels, the inventors measured BACE1 activity, Aβ40 and Aβ42 levels in mutant APP cells (N2a+mutant cDNA transfected) treated with ligand 1 using Sandwich ELISA.
as §1, with “As shown in (FIG. 10), the inventors performed 4 independent cell cultures and treatments for all experiments (n=4).” left out
ELISA Ligand based BACE1 inhibition of Aβ 40 and 42. […] For each sample, Aβ1-40 and Aβ1-42 were measured with commercial colorimetric ELISA kits (Biosource International, Camarillo, CA, USA) specific for human. […] Protein concentrations of the homogenates were determined following the […], and Aβ was expressed as pg Aβ/mg protein.
Background: In an ELISA, binding on a coated surface is turned into a signal by an enzyme label.

The next test deals with mAPP N2a cells. The test can be described thus: Immunofluorescence analysis of BACE1, 6E10 and CTF. To be noted: ligand 1-treated mAPP N2a cells relative to untreated mAPP N2a cells, P=0.01. The protocol:
Immunofluorescence analysis of BACE1, 6E10 and CTF. To determine the effect of ligand 1 on BACE1, 6E10 and C-terminal fragments, immunofluorescence analysis was performed on four different groups of cells: 1) untreated N2a cells versus; 2) N2a+ligand 1; 3); cells transfected with mAPP and 4) mAPP+ligand 1.
Immunofluorescence analysis of BACE1, 6E10 and CTF. To determine BACE1, 6E10, CTF inhibition, mitochondrial network, immunofluorescence analysis was performed using mutant AβPP cells and untransfected N2a and TOM20 antibody as described in (35). The fixed cells were washed with warm PBS, fixed in freshly prepared 4% paraformaldehyde in PBS for 10 minutes, then washed with PBS and permeabilized with 0.1% Triton-X100 in PBS. They were blocked with a 1% blocking solution (Invitrogen) for 1 hour at room temperature. All sections were incubated overnight with TOM20 antibody (1:250 dilution). After incubation, the cells were washed 3 times with PBS, for 10 minutes each. The cells were incubated with a secondary antibody conjugated with Fluor 488 (Invitrogen) for 1 hour at room temperature. The cells were washed 3 times with PBS and mounted on slides. Photographs were taken with a multiphoton laser scanning microscope system (ZeissMeta LSM510). To quantify the immunoreactivity of TOM20 antibody for each treatment, 10-15 photographs were taken at ×40 magnifications, and statistical significance was assessed, using one-way ANOVA for TOM20 protein.

Entries after “also recorded” stand apart in the source; their conditions may differ.

For “[(6As,8S,10aS,12aS)-10a, 12a-dimethyl-2-oxo-3,4,4a,4b,5,6,6a,7,8,9,10,10b,11,12-tetradecahydro-1H-naphtho[2,1-f]quinolin-8-yl] 4-[4-[bis(2-chloroethyl)amino]phenyl]butanoate [Ligand 1]”, the Cell viability result in the test with N2a cells [1] was “significantly increased”. Besides, the Mitochondrial length entry with N2a cells [2] (cells treated with ligand 1 relative to untreated cells) was “significantly increased”. Besides, the Number of mitochondria entry in the test with N2a cells [2] (mAPP+ligand 1 vs mAPP cells, P=0.01) is recorded as “reduced”. Moreover, the Aβ42 level result in test [3] (P=0.005) is “significantly lower; also recorded: reduced”. Also, the Aβ40 level result in test [3] (soluble, P=0.01) is listed as “decreased; also recorded: reduced”. In the test with mAPP N2a cells, the “6E10 immunoreactivity (mutant APP and Aβ)” value was “significantly lower; also recorded: significantly reduced”; the BACE1 immunoreactivity result is listed as “significantly lower; also recorded: significantly reduced”; the “C-terminal fragment (CTF) immunoreactivity” value is listed as “significantly lower; also recorded: significantly reduced”.

(Values after patent US12042492B2 (priority 2020, dated 2024).)
